Measurements reported in patent US20090220421A1, “METHOD FOR SCREENING MTP-INHIBITING COMPOUNDS” (priority 2005, published 2009).

How the values were obtained:
[1] = molecular target: T1, microsomal triglyceride transfer protein (MTP) (Mesocricetus auratus, UniProt P55158); experiment: Test B: qualitative analysis of the inhibition of MTP activity in vitro (labelled triglyceride transfer, SPA); assay type: biochemical, golden hamster; settings: [3H]-triolein transfer from liposomes to LDL-biot, 18-24 hours at 37° C.; read-out: IC50 (concentration that allows a 50% inhibition of MTP)
T1 construct: The supernatant comprising the soluble MTP is dialysed; from tissue; host or cells: golden hamster liver microsomes, deoxycholate-solubilised supernatant
T1 sequence (P55158 19-895): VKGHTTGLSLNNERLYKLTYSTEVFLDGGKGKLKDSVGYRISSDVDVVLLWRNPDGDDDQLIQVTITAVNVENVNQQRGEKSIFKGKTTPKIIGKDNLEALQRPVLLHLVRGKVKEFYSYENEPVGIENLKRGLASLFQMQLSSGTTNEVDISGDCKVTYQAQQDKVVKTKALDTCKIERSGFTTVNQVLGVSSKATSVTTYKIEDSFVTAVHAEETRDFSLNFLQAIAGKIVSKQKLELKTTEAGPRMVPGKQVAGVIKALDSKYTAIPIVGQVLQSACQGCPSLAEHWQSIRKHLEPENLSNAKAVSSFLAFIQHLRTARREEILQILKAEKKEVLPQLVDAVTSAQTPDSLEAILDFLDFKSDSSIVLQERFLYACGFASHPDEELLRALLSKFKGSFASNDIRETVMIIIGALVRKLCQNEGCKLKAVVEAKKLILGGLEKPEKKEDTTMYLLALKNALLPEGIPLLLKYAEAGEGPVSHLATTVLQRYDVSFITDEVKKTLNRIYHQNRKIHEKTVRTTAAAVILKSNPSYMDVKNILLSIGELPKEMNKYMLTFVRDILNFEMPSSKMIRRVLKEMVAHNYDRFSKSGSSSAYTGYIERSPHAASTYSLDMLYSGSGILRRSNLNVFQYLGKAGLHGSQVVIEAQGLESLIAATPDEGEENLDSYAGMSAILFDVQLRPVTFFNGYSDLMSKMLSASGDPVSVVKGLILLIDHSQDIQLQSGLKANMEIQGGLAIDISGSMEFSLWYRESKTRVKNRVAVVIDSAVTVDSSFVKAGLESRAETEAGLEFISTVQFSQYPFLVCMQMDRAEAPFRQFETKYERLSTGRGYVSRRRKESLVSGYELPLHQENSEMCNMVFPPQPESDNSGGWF
Experimental: Qualitative Analysis of the Inhibition of Mtp Activity In Vitro
The inhibition of the activity of microsomal triglyceride transfer protein (MTP) was tested by using the following operating protocol.
The inhibition of MTP activity with a compound may be quantified by observing the inhibition of the transfer of a labelled triglyceride, from a donor particle to an acceptor particle, in the presence of MTP. The procedure for the preparation of MTP is based on the method by Wetterau and Zilversmit (Biochem. Biophys. Acta (1986) 875, 610). A few grams of golden hamster liver are taken and then rinsed several times in a 250 mM sucrose solution at 0° C. All the following steps proceed at +4° C. […]
The reaction mixture is prepared in untreated ½ well white plates (Corning Costar) by addition, in the following order, of: 5 μl of HEPES 50 mM, NaCl 150 mM, BSA 0.1% (w/v), 0.05% sodium azide (w/v), pH 7.4 buffer; 5 μl of liposomes; 5 μl of LDL-biot; 5 μl of test products in DMSO 5 μl of MTP. After incubation for 18-24 hours at 37° C., the reaction is stopped by adding 100 μl of Amersham SPA (Scintillation Proximity Assay) beads coupled to streptavidin, and the radioactivity is counted using a Top Count (Packard) machine at least one hour later. The inhibition of the transfer of the triglycerides with a compound is reflected by a reduction in the transferred radioactivity. […]

[2] = tested on: secretion of VLDL (hepatic MTP); experiment: Test F: inhibition of secretion of VLDL in rats (triton technique); assay type: in vivo, Male Wistar rats; settings: 100 mg/kg orally, between 1 hour and 6 hours after treatment, relative to controls
Experimental: Inhibition of Secretion of VLDL in Rats:
The inhibition of hepatic MTP by compounds 1 and 2 was evaluated from their impact on the secretion of very low density lipoproteins (VLDLs). Male Wistar rats (220-280 g) receive a standard diet and water ad libitum. On the day of the experiment, the animals (n=7) are fasted and, one hour later, are treated with the compounds (100 mg/kg orally; excipient 0.5% methylcellulose). The secretion of VLDL is measured one hour after treatment, and for 5 hours, via the triton technique (WR 1339). When it is injected into the bloodstream, triton (400 mg/kg) prevents the catabolism of the VLDLs by inhibiting their lipolysis via lipoprotein lipase and by inhibiting their uptake by tissues. Measurement of the accumulation of triglycerides (TG) and of cholesterol, which is a component of VLDLs, thus makes is it possible to reveal the secretion of VLDL by the liver.
The effect of the product on the secretion of VLDL is thus evaluated between 1 hour and 6 hours after treatment at a dose of 100 mg/kg, i.e. between 0 and 5 hours after the intravenous injection of triton. Blood samples are taken at regular intervals under gaseous anaesthesia, to assay of the triglycerides and the cholesterol. […] The levels of inhibition relative to controls not treated with the compounds are determined, and the results are collated in Table V.

[3] = tested on: secretion of apoB by HepG2 cells; experiment: Test Avitro: kinetics (reversibility) of inhibition of secretion of apoB by HepG2 cells; assay type: cell-based, human
Experimental: Analyse of the Kinetics (Reversibility) of Inhibition of Secretion of apoB by HepG2 Cells:
HepG2 cells are placed in contact with the products as described in the preceding paragraph and the secretion of ApoB is measured after 6 and 24 hours. The comparison is made at equipotent dose for the inhibition of secretion of apoB after 24 hours.
Next, the products are removed from the culture medium (during changes of the medium at 0, 6, 24 and 48 hours) and the secretion of ApoB is again measured to determine the kinetics for return to normal secretion. The reversibility is judged satisfactory if the secretion, 24 hours after removal of the products, has a value greater than or equal to 70% of that of the controls (blank cells without compound).

[4] = Test D: metabolisation/inactivation of the product in rodent liver microsomes; assay type: in vitro ADME; settings: 0.5 mg/ml microsomes, 10 μM test product, 1 hour at 37° C., disappearance of parent by LC/MS/MS
Experimental: Metabolisation/Inactivation of the Product
The products are evaluated for their capacity to be inactivated rapidly in vitro. […] The incubation medium is prepared by mixing together the following constituents: NAD (1 mM), glucose 6 phosphate (5 mM), NADP (1 mM), glucose 6 phosphate dehydrogenase (1 IU/ml), bovine serum albumin (1 mg/ml), TRIS (10 mM pH=7.6), MgCl2 (5 mM).
A concentration of 0.5 mg/ml of microsomes (Biopredic) is placed in contact with 10 μM of test product. The mixture is incubated for 1 hour at 37° C. A fraction of the preparation is taken at the initial time, to which is added an equivalent volume of ethanol (quenching of the reaction by precipitation of the proteins). The same operation is repeated after 1 hour of incubation.
The samples obtained are centrifuged at 4000 rpm for 10 minutes, and the supernatant is analysed by LC/MS/MS. The percentage of disappearance of the parent product between T0 and T60 minutes is determined by calculating the areas of the chromatographic peaks.
(§1) Potential metabolites M1 and M2 (of the compounds 1 or 2, respectively) are identified, resynthesised and evaluated for their MTP-inhibiting activity.

secretion of VLDL = experiment: Test Avivo: duration of action of MTP inhibitors on the secretion of VLDL; assay type: in vivo, fatty fa/fa Zucker rats; settings: between 6 and 8 hours after treatment
Experimental: Determination of the Duration of Action of MTP Inhibitors on the Secretion of VLDL
This test makes it possible to evaluate the kinetics of inhibition of MTP-inhibiting compounds on the secretion of VLDL in fatty fa/fa Zucker rats (10-12 weeks old), which is an animal model characterised by hypersecretion of VLDL. The intensity and duration of inhibition are measured via the triton technique described above over a period ranging up to 8 hours after administration of the products. Since the duration of action of a product depends both of the administered dose and on its intrinsic characteristics, it is determined at a dose of makes it possible to reach a maximum inhibition (Imax) of at least 50% over a significant time interval. The comparison of the profile of duration of action of two compounds that may have different potentials is thus performed at respective doses that allow similar Imax values to be obtained.

MTP = molecular target: T2, MTP (Mesocricetus auratus, UniProt P55158); experiment: Test D: MTP-inhibiting activity of the resynthesised metabolites; assay type: biochemical; settings: MTP-inhibiting activity of metabolites M1, M2 of the compound
T2 sequence (P55158 19-895): T1 sequence (P55158 19-895)
Source text: Thus, Test A may also be preceded or followed, preferably followed, by one or more tests of inhibition of MTP and/or of inhibition of the secretion of VLDLs and/or of inhibition of the secretion of apoB, which are similar or even identical to the Tests B and/or C, respectively, defined above, but performed this time on the plasmatic metabolites of the candidate compounds. These tests on the metabolites will be referred to hereinbelow as Test D (metabolites/MTP inhibition test) and Test E (metabolites/apoB inhibition test).
as §1

[5] = tested on: apoB secretion in HepG2 cells; experiment: Test C: inhibition of apoB secretion in the HepG2 human cell line (sandwich ELISA); assay type: cell-based; settings: 24 hours incubation, read-out: IC50 (concentration that produces a 50% inhibition of apoB secretion in the HepG2 cells)
Experimental: Qualitative Analysis of the Secretion of apoB in the HepG2 Human Cell Line
The activity of a compound may be evaluated by measuring the inhibition of apoB secretion in HepG2 cells.
The HepG2 cells (ECACC-No. 85011430) are used as model in the study of the in vitro hepatic secretion of lipoproteins, as described by Dixon J. and Ginsberg H. (J. Lipid. Res., (1993), 34, 167-179).
The HepG2 cells are cultured in Dulbecco's modified Eagle's medium comprising 10% foetal calf serum (DMEM and FBS-Gibco) in 96-well plates under an atmosphere of 5% carbon dioxide for 24 hours (about 70% confluence).
The test compounds are dissolved at a concentration of 2 or 10 mM in dimethyl sulfoxide (DMSO). Serial dilutions (1:3.16) are made in DMSO and are added (1:200—Robot Multimek Beckman) to the growth medium (200 μl) and then finally incubated for 24 hours in the various wells containing the HepG2 cells.
The 24-hour culture supernatant diluted to 1:5 (phosphate-buffered saline: PBS comprising 1% bovine serum albumin) is tested according to a sandwich-ELISA method specific for human apoB.
The results, presented in Table II below for compounds 1 and 2, are expressed in terms of IC50, i.e. the concentration that produces a 50% inhibition of apoB secretion in the HepG2 cells.

O=C(NC1CCN(Cc2cccnc2)CC1)c1ccccc1-c1ccc(C(F)(F)F)cc1 [Compound 1]
IC50 [1]: 320 nM | Inhibition of secretion of VLDL-TG [2]: −56% | Inhibition of secretion of VLDL-cholesterol [2]: −45% | Secretion of apoB 24 hours after removal of the products (% of the controls) [3]: >85% | Metabolisation (%/hour) [4]: 88 %/hour | residual inhibition of VLDL secretion (secretion of VLDL): absence of significant residual inhibition | Activity of the metabolites (MTP): M1, M2 inactive | IC50 [5]: 18 nM
